Results: patent US5182289A, “Heterobicyclic compounds having antiinflammatory activity” (Schering Corporation, priority 1990, dated 1993)
Read-outs that look alike come from different tables or passages of the source. Each block holds one compound with its values, some of them ahead of it.

How the values were obtained:
[1] = tested on: Reversed Passive Arthus Reaction (RPAR) in the pleural cavity; assay: Reversed Passive Arthus Reaction (RPAR) in the pleural cavity: cells and fluid; type: in vivo, male rats; conditions: Rattus norvegicus, 4 h; for inhibition in vivo at 40 mg/kg: dose 40 mpk; for inhibition in vivo at 25 mg/kg: dose 25 mpk
Experimental: (§1) Reversed Passive Arthus Reaction (RPAR) Assay
(§2) Groups of 4 male rats were injected in the penile vein with antigen (1 mg BSA in 0.2 mL of saline per rat) and 0.5 hour later injected in the pleural cavity with antibody (1.0 mg antibody protein in the IgG fraction of rabbit anti-BSA in 0.2 mL). […] After 4 hours the animals were killed with CO2, and the pleural cavities were opened and the exudate drained into a graduated conical glass centrifuge tube containing indomethacin (1.8 ug) and nordihydroguaiaretic acid (NDGA) (15 ug) to block ex vivo metabolite synthesis. The volume of the exudate was measured. The cavity was then washed out with saline-EDTA to achieve a final volume of 5.0 mL. The number of cells were determined in a Colulter Counter. The cells were spun-down (1000×g) and the exudate supernatant was added to 4 volumes of 95% ethanol and samples were kept on ice for 30 minutes. After removal of the protein precipitate (2,500×g) the ethanol extract of the exudate was dried under N2 and then stored at -20° C. For radioimmunoassay (RIA) analysis the samples were redissolved in water to a volume of 1 mL per rat. Utilizing internally spiked samples, recovery of TXB2 (tritiated thromboxane B2) and LTE4 (tritiated leukotriene-E4) from exudates was determined to be 84±2% (SEM) and 89±2% (N=4), respectively. Exudate samples were directly assayed in duplicate with the commercial ^3 H-TXB2 RIA kit from New England Nuclear and the ^3 H-LTC4 /D4 /E4 kit from Amersham. The assay was validated using reversed-phase HPLC analysis of LTs in the standard procedure described by M. W. Musch, R. W. Bryant, C. Coscollaela, R. F. Myers and M. I. Siegel, Prostaglandins, Vol. 29, pp 405-430 (1985). Samples of ethanol exudate extract were "spiked" with ^3 H-LTs to follow HPLC purification and recovery.

[2] = tested on: 5-LO; assay: Reversed Passive Arthus Reaction (RPAR) in the pleural cavity: LTE-4 in exudate; type: in vivo, male rats
Experimental: as §1, §2

[3] = tested on: CO (cyclooxygenase); assay: Reversed Passive Arthus Reaction (RPAR) in the pleural cavity: TXB-2 in exudate; type: in vivo, male rats
Experimental: as §1, §2

[4] = biological target: T1, cyclooxygenase (Homo sapiens, UniProt P23219); assay: Cyclooxygenase Assay with Human Platelets, HHT production; type: cell-based; conditions: for % inhibition of HHT production in human platelets at 50 µM / % inhibition of HHT production in human platelets at 15 µM: read-out: PMN Assay % Inhibition HHT
T1 construct: Cyclooxygenase Assay with Human Platelets; endogenous in cells; host or cells: human blood platelets from healthy volunteers
T1 sequence (P23219 24-599): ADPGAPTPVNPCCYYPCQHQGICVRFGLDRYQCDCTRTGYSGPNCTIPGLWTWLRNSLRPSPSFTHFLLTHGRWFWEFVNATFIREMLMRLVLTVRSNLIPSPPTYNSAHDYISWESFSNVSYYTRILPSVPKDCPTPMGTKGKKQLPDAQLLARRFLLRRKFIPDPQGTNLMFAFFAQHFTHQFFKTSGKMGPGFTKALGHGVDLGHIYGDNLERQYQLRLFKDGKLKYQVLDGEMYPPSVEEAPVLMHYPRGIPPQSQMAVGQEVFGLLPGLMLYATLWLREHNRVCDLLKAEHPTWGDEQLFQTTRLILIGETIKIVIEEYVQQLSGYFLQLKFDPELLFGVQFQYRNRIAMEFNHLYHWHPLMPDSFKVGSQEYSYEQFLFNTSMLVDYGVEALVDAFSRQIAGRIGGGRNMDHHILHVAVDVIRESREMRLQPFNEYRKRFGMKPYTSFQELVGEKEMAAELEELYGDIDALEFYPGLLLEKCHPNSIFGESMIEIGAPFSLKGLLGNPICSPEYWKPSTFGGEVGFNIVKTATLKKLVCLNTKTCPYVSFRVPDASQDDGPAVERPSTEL
Experimental: Cyclooxygenase Assay with Human Platelets
Blood is collected in acid-citrate-dextrose anticoagulant by venipuncture from normal healthy volunteers who said that they were not on any medication for the previous two weeks. Platelets are isolated by the procedure of Okuma and Uchino (Blood 54:1258-1271 (1979)). In brief, blood is centrifuged at 4° C. at 200×g for 10 minutes to sediment red and white cells. The platelet rich plasma (PRP) supernatant is removed and mixed with one-tenth volume of 77 mM EDTA, pH 7.2 and prostacyclin sodium salt is added to the PRP at a final concentration of 1 nanogram per milliliter(ng/mL). The PRP is centrifuged at 1700×g, 4° C. for 15 minutes. The platelet pellet is resuspended in the HEPES buffer described in the 5-lipoxygenase section above which additionally contained 1 ng/mL prostacyclin and 0.5 mM ethylene glycolbis(B-aminoethyl ether) N,N,N',N'-tetraacetic acid (EGTA) and the suspension is recentrifuged at 1,700×g, 4° C. for 15 minutes. The pellet is resuspended in HEPES buffer containing 0.5 mM EGTA and 1.5 mM CaCl2 at a cell count of 200,000 cells/ul. Platelets (0.2 ml of suspension) are preincubated with test compounds and the ^14 C-arachidonic acid plus the calcium ionophore A23187 stimulant exactly as described for the 5-lipoxygenase assay. The cyclooxygenase product 12-hydroxyheptadecatrienoic acid (HHT) is isolated and quantitated by the HPLC system used for the 5-lipoxygenaseassay. HHT elutes from this system at about eleven minutes. Results are expressed as percent inhibition of HHT production by the test compounds versus the test vehicle alone.

[5] = biological target: T2, 5-lipoxygenase (Homo sapiens, UniProt P09917); assay: 5-Lipoxygenase Assay in human polymorphonuclear (PMN) leukocytes, 5-HETE production; type: cell-based
T2 construct: Human polymorphonuclear (PMN) leukocytes (neutrophils) are obtained from normal healthy volunteers; endogenous in cells; host or cells: human polymorphonuclear leukocytes (neutrophils) from blood of healthy volunteers
T2 sequence (P09917 1-674): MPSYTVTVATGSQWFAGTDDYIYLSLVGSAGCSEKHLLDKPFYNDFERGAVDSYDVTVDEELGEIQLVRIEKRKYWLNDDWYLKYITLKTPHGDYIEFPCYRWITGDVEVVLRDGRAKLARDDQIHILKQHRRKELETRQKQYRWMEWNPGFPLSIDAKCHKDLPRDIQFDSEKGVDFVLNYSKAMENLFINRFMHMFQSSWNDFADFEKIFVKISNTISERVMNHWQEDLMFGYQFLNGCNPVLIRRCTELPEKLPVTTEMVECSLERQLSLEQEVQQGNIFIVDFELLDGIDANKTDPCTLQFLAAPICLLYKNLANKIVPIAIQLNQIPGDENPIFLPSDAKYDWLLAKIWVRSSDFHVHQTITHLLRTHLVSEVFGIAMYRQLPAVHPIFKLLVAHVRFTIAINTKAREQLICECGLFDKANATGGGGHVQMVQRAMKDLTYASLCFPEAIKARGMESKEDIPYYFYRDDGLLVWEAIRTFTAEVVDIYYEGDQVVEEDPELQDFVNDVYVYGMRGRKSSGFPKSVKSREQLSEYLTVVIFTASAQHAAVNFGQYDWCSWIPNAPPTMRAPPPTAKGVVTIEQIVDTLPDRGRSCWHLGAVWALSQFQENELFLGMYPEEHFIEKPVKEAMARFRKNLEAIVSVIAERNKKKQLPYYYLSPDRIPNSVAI
Experimental: Human polymorphonuclear (PMN) leukocytes (neutrophils) are obtained from normal healthy volunteers by venipuncture and collected with heparin anticoagulant. Neutrophils are isolated by Dextran/Ficol sedimentation as described (Billah et al, J. Biol. Chem. 260, 6899-6906 (1985)). In brief, 30 ml of blood is mixed with 5 ml of dextran (Sigma) solution and kept at 37° C. for 30 min. The upper white cellrich layer is removed and 10 ml is layered on 9 ml of Ficol-Paque solution (Pharmacia) and centrifuged at 280×g for 10 min. at 5° C. The supernatant is removed and the neutrophil pellet is resuspended in HEPES buffer containing 25 mM N-2-hydroxyethylpiperazine-N^1 -2 ethanesulfonic acid(HEPES), 125 mM NaCl, 2.5 mM KCL, 0.7 mM MgCl2, 0.5 mM and 10 mM glucose at pH 7.4. The red cells in the suspension are lysed by hypotonic shock. The neutrophils are washed by centrifugation in HEPES buffer two times and finally resuspended at a concentration of 20×10^6 cells/ml in the presence of 1 mM CaCl2.
Neutrophils (0.2 ml of suspension) are preincubated with dimethylsulfoxide (DMSO) vehicle with or without test compound (1 ul) for 4 minutes then incubated for 5 minutes with ^14 C-arachidonic acid (Amersham, 59 Ci/mole) at a 9 uM final concentration, and the calcium ionophore A23187 (Calbiochem) at a 1 uM final concentration. These stimulants are added in 10 ul of water:ethanol (9:1). The reaction is stopped by addition of methanol (0.4 ml), and cellular debris is removed by centrifugation. Aliquots (100 ul) of the incubations are run on a Waters two pump high performance liquid chromatography (HPLC) system fitted with a DuPont Zorbax ODS, 5 u, 4×80 […] Reliance Cartridge column and C18 "Guard Pak". The column is initially eluted at 2 ml/min with 80 percent of the mixture water:methanol:acetic acid (46:54:0.08) containing 1 mM EDTA adjusted to pH 6.0 with ammonium hydroxide (Pump A) and 20% methanol (Pump B). At 10 minutes, a linear gradient is established. to reach 100 percent methanol (Pump B) at 27 minutes. Between 27 and 28 minutes, methanol is exchanged for the initial eluting solvent and by 35 minutes the column is reequilibrated for the next sample. The effluent is analyzed by a continuous flow radioactivity monitor (model ROMONA-D) interfaced with a Hewlett Packard Lab Automation System for quantitation of radioactive products. This includes the major 5-lipoxygenase product, 5-hydroxyeicosatetraenoic acid (5-HETE) which elutes at 20 minutes. The results with and without test compound are used to calculate percent inhibition of 5-HETE production.

[6] = read-out: RPAR-Pleural Cavity % Inhibition cells
[7] = read-out: RPAR-Pleural Cavity % Inhibition fluid

SMILES: CC1(C)C(=O)N(c2ccccc2)c2ncccc21 [Compound 1, 1,3-dihydro-3,3-dimethyl-1-phenyl-2H-pyrrolo[2,3-b]pyridin-2-one]
inhibition in vivo at 40 mg/kg [1, 6]: 70% | inhibition in vivo at 40 mg/kg [1, 7]: 60% | RPAR-Pleural Cavity % Inhibition LTE-4 ([2]; dose 40 mpk): 54% | RPAR-Pleural Cavity % Inhibition TXB-2 ([3]; dose 40 mpk): 54%

SMILES: CC1(C)C(=O)N(c2ccc(Cl)cc2)c2ncccc21 [Compound 2, 1-(4-chlorophenyl)-1,3-dihydro-3,3-dimethyl-2H-pyrrolo[2,3-b]pyridin-2-one]
inhibition in vivo at 25 mg/kg [1, 6]: 73% | inhibition in vivo at 25 mg/kg [1, 7]: 83% | RPAR-Pleural Cavity % Inhibition LTE-4 ([2]; dose 25 mpk): 87% | RPAR-Pleural Cavity % Inhibition TXB-2 ([3]; dose 25 mpk): 78%

% inhibition of HHT production in human platelets at 50 µM [4]: 44% | inhibition at 50 µM [5]: 82%
SMILES: O=C1C([S+]([O-])c2ccccc2)c2cccnc2N1c1cccc(C(F)(F)F)c1 (stereo not drawn) [Compound 13, 1,3-dihydro-3-(phenylsulfinyl)-1-(3-trifluoromethylphenyl)-2H-pyrrolo[2,3-b]pyridin-2-one]

% inhibition of HHT production in human platelets at 50 µM [4]: 17% | inhibition at 50 µM [5]: 63%
SMILES: CC(C)N1C(=O)C(Sc2ccccc2)c2cccnc21 (stereo not drawn) [Compound 14, 1,3-dihydro-1-(methylethyl)-3-(phenylthio)-2H-pyrrolo[2,3-b]pyridin-2-one]

% inhibition of HHT production in human platelets at 50 µM [4]: 2% | inhibition at 50 µM [5]: 68%
SMILES: CC1(Sc2ccccc2)C(=O)N(c2ccccc2)c2ncccc21 (stereo not drawn) [Compound 16, 1,3-dihydro-3-methyl-1-phenyl-3-(phenylthio)-2H-pyrrolo[2,3-b]pyridin-2-one]

% inhibition of HHT production in human platelets at 50 µM [4]: 21% | inhibition at 50 µM [5]: 63%
SMILES: CN1C(=O)C(Sc2ccccc2)c2cccnc21 (stereo not drawn) [Compound 17, 1,3-dihydro-1-methyl-3-(phenylthio)-2H-pyrrolo[2,3-b]pyridin-2-one]

% inhibition of HHT production in human platelets at 50 µM [4]: 64% | inhibition at 50 µM [5]: 86%
SMILES: Cc1c(Cl)cccc1N1C(=O)C(Sc2ccccc2)c2cccnc21 (stereo not drawn) [Compound 18, 1,3-dihydro-1-(3-chloro-2-methylphenyl)-3-(phenylthio)-2H-pyrrolo[2,3-b]pyridin-2-one]

% inhibition of HHT production in human platelets at 50 µM [4]: 71% | inhibition at 50 µM [5]: 91%
SMILES: O=C1C(Sc2ccc(Cl)cc2)c2cccnc2N1c1ccccc1 (stereo not drawn) [Compound 19, 1,3-dihydro-3-(4-chlorophenylthio)-1-phenyl-2H-pyrrolo[2,3-b]pyridin-2-one]

% inhibition of HHT production in human platelets at 50 µM [4]: 80% | inhibition at 50 µM [5]: 90%
SMILES: O=C1C(Sc2ccccc2Cl)c2cccnc2N1c1ccccc1 (stereo not drawn) [Compound 20, 1,3-dihydro-3-(2-chlorophenylthio)-1-phenyl-2H-pyrrolo[2,3-b]pyridin-2-one]

% inhibition of HHT production in human platelets at 50 µM [4]: 31% | inhibition at 50 µM [5]: 84%
SMILES: COc1ccccc1SC1C(=O)N(c2ccccc2)c2ncccc21 (stereo not drawn) [Compound 22, 1,3-dihydro-3-(2-methoxyphenylthio)-1-phenyl-2H-pyrrolo[2,3-b]pyridin-2-one]

% inhibition of HHT production in human platelets at 15 µM ([4]; 15 μM): 11% | inhibition at 15 µM ([5]; 15 μM): 96%
SMILES: O=C1N(Cc2ccccc2)c2ncccc2C1(Sc1ccccc1)Sc1ccccc1 [Compound 26, 1,3-dihydro-3,3-(diphenylthio)-1-(phenylmethyl)-2H-pyrrolo[2,3-b]pyridin-2-one]

SMILES: CC(=O)OCCSC1(C(C)=O)C(=O)N(c2ccccc2)c2ncccc21 (stereo not drawn) [Compound 28, 1,3-dihydro-3-[2-(acetoxy)-ethylthio)-3-(1-oxoethyl)-1-phenyl-2H-pyrrolo[2,3-b]pyridin-2-one]
% inhibition of HHT production in human platelets ([4]; 15 μM): 29% | % inhibition of HHT production in human platelets at 15 µM ([4]; 15 μM): 35% | PMN Assay % Inhibition 5-HETE ([5]; 15 μM): 96% | inhibition at 15 µM ([5]; 15 μM): 80%

% inhibition of HHT production in human platelets at 15 µM ([4]; 15 μM): 52% | inhibition at 15 µM ([5]; 15 μM): 87%
SMILES: O=C1C(Sc2ccccc2)c2cccnc2N1c1cccc(Cl)c1 (stereo not drawn) [Compound 33, 1,3-dihydro-1-(3-chlorophenyl)-3-(phenylthio)-2H-pyrrolo]

% inhibition of HHT production in human platelets at 15 µM ([4]; 15 μM): 54% | inhibition at 15 µM ([5]; 15 μM): 99%
SMILES: O=C1C(Sc2ccccc2)c2cccnc2N1c1ccc(Cl)c(Cl)c1 (stereo not drawn) [Compound 34, 1,3-dihydro-1-(3,4-dichlorophenyl)-3-(phenylthio)[2,3-b]pyridin-2-one]

% inhibition of HHT production in human platelets ([4]; concentration not given): 55% | inhibition of 5-HETE in the PMN assay ([5]; concentration not given): 80%
SMILES: COc1c(Sc2ccccc2)c2cccnc2n1-c1ccccc1 [Compound 35, 2-methoxy-1-phenyl-3-(phenylthio)-1H-pyrrolo[2,3-b]pyridine]
